# Molecular target: T1, chimeric human H3 receptor (Homo sapiens, UniProt Q9Y5N1, E19D)
# T1 construct: made in house; host or cells: Sf9 insect cells (baculovirus infection); P2 membrane preparation
# Test: Chimeric human H3 receptor GTP binding assay (agonist-stimulated GTP-gamma35S binding, Example 7)
# Format: biochemical
# Conditions: "*" in Ki of Table II; assay of Example 7; read-out: Ki
# In short: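 IC50 values come from non-linear regression of dose-response curves of filter-bound GTP-gamma^35S, counted by scintillation. Membranes were from infected Sf9 cells carrying receptor plus G-protein subunits, 35 μg/tube, with 10 μM GDP present.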
# T1 sequence (Q9Y5N1 with tags, fused parts or gaps E19D): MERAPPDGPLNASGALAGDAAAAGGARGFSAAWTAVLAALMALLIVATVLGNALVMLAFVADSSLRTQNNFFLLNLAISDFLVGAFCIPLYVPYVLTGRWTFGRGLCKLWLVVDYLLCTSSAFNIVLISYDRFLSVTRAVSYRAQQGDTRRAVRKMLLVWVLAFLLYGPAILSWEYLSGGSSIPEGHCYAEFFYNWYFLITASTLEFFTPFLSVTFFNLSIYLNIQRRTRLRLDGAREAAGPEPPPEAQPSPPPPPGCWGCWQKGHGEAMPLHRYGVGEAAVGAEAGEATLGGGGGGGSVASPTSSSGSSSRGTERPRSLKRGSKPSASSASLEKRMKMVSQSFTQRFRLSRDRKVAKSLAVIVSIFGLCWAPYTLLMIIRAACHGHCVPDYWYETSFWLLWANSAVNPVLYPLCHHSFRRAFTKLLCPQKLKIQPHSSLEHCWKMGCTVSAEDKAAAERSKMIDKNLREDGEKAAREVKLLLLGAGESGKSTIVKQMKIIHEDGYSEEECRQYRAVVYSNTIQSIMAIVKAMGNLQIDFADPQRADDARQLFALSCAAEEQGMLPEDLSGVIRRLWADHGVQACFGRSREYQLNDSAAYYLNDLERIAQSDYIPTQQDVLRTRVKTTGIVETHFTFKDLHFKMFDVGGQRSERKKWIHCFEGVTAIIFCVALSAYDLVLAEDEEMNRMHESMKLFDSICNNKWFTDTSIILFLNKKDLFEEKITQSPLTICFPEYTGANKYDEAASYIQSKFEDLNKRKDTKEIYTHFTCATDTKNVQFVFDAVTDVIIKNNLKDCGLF
row,SMILES,Ki
1,"CC(C)N1CCN(C(=O)CN2CCN(c3ccc(C(F)(F)F)cn3)CC2C)CC1 (stereo not shown) [Compound 445, 1-[2-(4-isopropylpiperazin-1-yl)-2-oxoethyl]-2-methyl-4-[5-(trifluoromethyl)pyridin-2-yl]piperazine]",< 1000 nM
2,"CC(C)N1CCN(C(=O)CN2CCC(N(C)C)C2)CC1 (stereo not shown) [Compound 446, 1-[2-(4-isopropylpiperazin-1-yl)-2-oxoethyl]-N,N-dimethylpyrrolidin-3-amine]",< 1000 nM
3,CCC(C)N1CCN(C(=O)CN2CCC(N3CCCCC3)CC2)CC1 (stereo not shown) [Compound 447],< 1000 nM
4,"CCC(C)N1CCN(C(=O)CN2CCC(N3CCC(C)CC3)CC2)CC1 (stereo not shown) [Compound 448, 1′-[2-(4-sec-butylpiperazin-1-yl)-2-oxoethyl]-4-methyl-1,4-bipiperidine]",< 1000 nM
5,"CCCN(CC1CC1)C1CCN(CC(=O)N2CCN(C(C)CC)CC2)CC1 (stereo not shown) [Compound 449, 1-[2-(4-sec-butylpiperazin-1-yl)-2-oxoethyl]-N-(cyclopropylmethyl)-N-propylpiperidin-4-amine]",< 1000 nM
6,"CCCN(CCC)C1CCN(CC(=O)N2CCN(C(C)CC)CC2)CC1 (stereo not shown) [Compound 450, 1-[2-(4-sec-butylpiperazin-1-yl)-2-oxoethyl]-N,N-dipropylpiperidin-4-amine]",< 1000 nM
7,"CC1CN(c2ccc(C(F)(F)F)cn2)CCN1CC(=O)N1CCN(C(C)(C)C)CC1 (stereo not shown) [Compound 451, 1-[2-(4-tert-butylpiperazin-1-yl)-2-oxoethyl]-2-methyl-4-[5-(trifluoromethyl)pyridin-2-yl]piperazine]",< 1000 nM
8,"O=C(CN1CCN(c2ccc(-c3cc(C(F)(F)F)ccc3Cl)cc2)CC1)N1CCN(C2CCC2)CC1 [Compound 453, 1-[2′-chloro-5′-(trifluoromethyl)biphenyl-4-yl]-4-[2-(4-cyclobutylpiperazin-1-yl)-2-oxoethyl]piperazine]",< 1000 nM
9,"CC(=O)c1cccc(-c2cnc(N3CCN(CC(=O)N4CCN(C5CCC5)CC4)CC3)cn2)c1 [Compound 454, 1-[3-(5-{4-[2-(4-cyclobutylpiperazin-1-yl)-2-oxoethyl]piperazin-1-yl}pyrazin-2-yl}phenyl]ethanone]",< 1000 nM
10,"CC(=O)c1cccc(-c2ccc(N3CCN(CC(=O)N4CCN(C5CCC5)CC4)CC3)nn2)c1 [Compound 455, 1-[3-(6-{4-[2-(4-cyclobutylpiperazin-1-yl)-2-oxoethyl]piperazin-1-yl}pyridazin-3-yl)phenyl]ethanone]",< 1000 nM
11,"O=C(CN1CCN(c2ccc(-c3cc(C(F)(F)F)cc(C(F)(F)F)c3)cc2)CC1)N1CCN(C2CCC2)CC1 [Compound 457, 1-[3′,5′-bis(trifluoromethyl)biphenyl-4-yl]-4-[2-(4-cyclobutylpiperazin-1-yl)-2-oxoethyl]piperazine]",< 1000 nM
12,"O=C(CN1CCN(c2ccc(-c3ccc4c(c3)OCO4)cc2)CC1)N1CCN(C2CCC2)CC1 [Compound 458, 1-[4-(1,3-benzodioxol-5-yl)phenyl]-4-[2-(4-cyclobutylpiperazin-1-yl)-2-oxoethyl]piperazine]",< 1000 nM
13,"CC(=O)c1ccc(-c2ccc(N3CCN(CC(=O)N4CCN(C5CCC5)CC4)CC3)nn2)cc1 [Compound 459, 1-[4-(6-{4-[2-(4-cyclobutylpiperazin-1-yl)-2-oxoethyl]piperazin-1-yl}pyridazin-3-yl)phenyl]ethanone]",< 1000 nM
14,"O=C(CN1CCN(c2ccc(S(=O)(=O)Cc3ccccc3)cc2)CC1)N1CCN(C2CCC2)CC1 [Compound 460, 1-[4-(benzylsulfonyl)phenyl]-4-[2-(4-cyclobutylpiperazin-1-yl)-2-oxoethyl]piperazine]",< 1000 nM
15,"CC(=O)c1ccc(N2CCN(CC(=O)N3CCN(C4CCC4)CC3)CC2)cc1C(F)(F)F [Compound 461, 1-[4-{4-[2-(4-cyclobutylpiperazin-1-yl)-2-oxoethyl]piperazin-1-yl}-2-(trifluoromethyl)phenyl] ethanone]",< 1000 nM
16,"CC(=O)c1ccc(N2CCN(CC(=O)N3CCN(C4CCC4)CC3)CC2)c(C(F)(F)F)c1 [Compound 462, 1-[4-{4-[2-(4-cyclobutylpiperazin-1-yl)-2-oxoethyl]piperazin-1-yl}-3-(trifluoromethyl)phenyl] ethanone]",< 1000 nM
17,"O=C(CN1CCN(c2ccc(-c3ccc(Cl)c(C(F)(F)F)c3)cc2)CC1)N1CCN(C2CCC2)CC1 [Compound 463, 1-[4′-chloro-3′-(trifluoromethyl)biphenyl-4-yl]-4-[2-(4-cyclobutylpiperazin-1-yl)-2-oxoethyl]piperazine]",< 1000 nM

# Same assay, conditions: assay of Example 7; symbol * in column headed Ki of Table II; read-out: Ki
row,SMILES,Ki
1,"O=C1NC2(CCN(CC(=O)N3CCN(C4CCC4)CC3)CC2)c2ccccc21 [Compound 434, 1′-[2-(4-cyclobutylpiperazin-1-yl)-2-oxoethyl]spiro[isoindole-1,4′-piperidin]-3(2H)-one]",< 1000 nM
2,"O=C(CN1CCC2(CC1)C(=O)Nc1cccnc12)N1CCN(C2CCC2)CC1 [Compound 435, 1-[2-(4-cyclobutylpiperazin-1-yl)-2-oxoethyl]spiro[piperidine-4,3′-pyrrolo[3,2-b]pyridin]-2′(1′H)-one]",< 1000 nM
3,"O=C1NC2(CCN(CC(=O)N3CCN(C4CCC4)CC3)CC2)c2ncccc21 [Compound 436, 1-[2-(4-cyclobutylpiperazin-1-yl)-2-oxoethyl]spiro[piperidine-4,7′-pyrrolo[3,4-b]pyridin]-5′(6′H)-one]",< 1000 nM
4,"O=C(CN1CCC(N2CCCCC2)CC1)N1CCN(C2CCCCC2)CC1 [Compound 437, 1′-[2-(4-cyclohexylpiperazin-1-yl)-2-oxoethyl]-1,4′-bipiperidine]",< 1000 nM
5,"CC1CN(c2ccc(C(F)(F)F)cn2)CCN1CC(=O)N1CCN(C2CCCCC2)CC1 (stereo not shown) [Compound 438, 1-[2-(4-cyclohexylpiperazin-1-yl)-2-oxoethyl]-2-methyl-4-[5-(trifluoromethyl)pyridin-2-yl]piperazine]",< 1000 nM
6,"CC1CCN(C2CCN(CC(=O)N3CCN(C4CCCCC4)CC3)CC2)CC1 [Compound 439, 1′-[2-(4-cyclohexylpiperazin-1-yl)-2-oxoethyl]-4-methyl-1,4′-bipiperidine]",< 1000 nM
7,"CCCN(CC1CC1)C1CCN(CC(=O)N2CCN(C3CCCCC3)CC2)CC1 [Compound 440, 1-[2-(4-cyclohexylpiperazin-1-yl)-2-oxoethyl]-N-(cyclopropylmethyl)-N-propylpiperidin-4-amine]",< 1000 nM
8,"CCCN(CCC)C1CCN(CC(=O)N2CCN(C3CCCCC3)CC2)CC1 [Compound 441, 1-[2-(4-cyclohexylpiperazin-1-yl)-2-oxoethyl]-N,N-dipropylpiperidin-4-amine]",< 1000 nM
9,"CC1CN(c2ccc(C(F)(F)F)cn2)CCN1CC(=O)N1CCN(C2CCCC2)CC1 (stereo not shown) [Compound 442, 1-[2-(4-cyclopentylpiperazin-1-yl)-2-oxoethyl]-2-methyl-4-[5-(trifluoromethyl)pyridin-2-yl]piperazine]",< 1000 nM
10,"CCN(CC)C1CCN(CC(=O)N2CCN(C3CCCC3)CC2)C1 (stereo not shown) [Compound 443, 1-[2-(4-cyclopentylpiperazin-1-yl)-2-oxoethyl]-N,N-diethylpyrrolidin-3-amine]",< 1000 nM
11,"CN(C)C1CCN(CC(=O)N2CCN(C3CCCC3)CC2)C1 (stereo not shown) [Compound 444, 1-[2-(4-cyclopentylpiperazin-1-yl)-2-oxoethyl]-N,N-dimethylpyrrolidin-3-amine]",< 1000 nM

# — US7851474B2, “Dipiperazinyl ketones and related analogues” (Neurogen Corporation, priority 2005, dated 2010)
